{"source": "paper PMC4508061", "about": "“Selectivity Profiling and Biological Activity of Novel β-Carbolines as Potent and Selective DYRK1 Kinase Inhibitors” (PLoS ONE, 2015)", "key": {"MUSK": {"biological_target": "MUSK (Homo sapiens, UniProt O15146)", "sequence (O15146 24-869)": "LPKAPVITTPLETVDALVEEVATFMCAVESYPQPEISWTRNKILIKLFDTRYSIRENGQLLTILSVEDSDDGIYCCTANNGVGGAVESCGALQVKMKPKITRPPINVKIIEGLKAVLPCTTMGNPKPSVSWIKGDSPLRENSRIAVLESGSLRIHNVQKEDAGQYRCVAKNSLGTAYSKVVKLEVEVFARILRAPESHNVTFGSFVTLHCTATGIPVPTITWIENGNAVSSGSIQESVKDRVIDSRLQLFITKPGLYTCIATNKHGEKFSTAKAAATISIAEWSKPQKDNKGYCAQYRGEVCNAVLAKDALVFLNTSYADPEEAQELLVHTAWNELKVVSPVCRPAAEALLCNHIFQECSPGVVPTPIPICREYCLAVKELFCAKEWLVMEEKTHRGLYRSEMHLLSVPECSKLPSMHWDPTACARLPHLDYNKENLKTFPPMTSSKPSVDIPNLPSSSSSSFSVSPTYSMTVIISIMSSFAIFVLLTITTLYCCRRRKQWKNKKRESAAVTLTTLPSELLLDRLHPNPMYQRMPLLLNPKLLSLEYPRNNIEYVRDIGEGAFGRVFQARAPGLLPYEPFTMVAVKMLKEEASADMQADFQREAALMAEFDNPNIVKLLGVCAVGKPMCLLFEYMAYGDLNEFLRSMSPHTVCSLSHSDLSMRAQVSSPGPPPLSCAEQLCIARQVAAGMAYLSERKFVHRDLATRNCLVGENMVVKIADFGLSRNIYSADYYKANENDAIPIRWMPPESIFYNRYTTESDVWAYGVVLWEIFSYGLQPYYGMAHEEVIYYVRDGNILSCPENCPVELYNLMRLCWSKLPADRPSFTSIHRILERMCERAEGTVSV", "assay": "ProQinase radiometric kinase panel", "details": "mean of 2 exp."}, "Cell viability XTT assay": {"assay": "Cell viability XTT assay", "assay_type": "cell-based", "details": "human, SH-SY5Y cells, read-out: Viability of treated cells relative to untreated control"}, "MKNK2": {"biological_target": "MKNK2 (Homo sapiens, UniProt Q9HBH9)", "sequence (Q9HBH9 whole entry)": "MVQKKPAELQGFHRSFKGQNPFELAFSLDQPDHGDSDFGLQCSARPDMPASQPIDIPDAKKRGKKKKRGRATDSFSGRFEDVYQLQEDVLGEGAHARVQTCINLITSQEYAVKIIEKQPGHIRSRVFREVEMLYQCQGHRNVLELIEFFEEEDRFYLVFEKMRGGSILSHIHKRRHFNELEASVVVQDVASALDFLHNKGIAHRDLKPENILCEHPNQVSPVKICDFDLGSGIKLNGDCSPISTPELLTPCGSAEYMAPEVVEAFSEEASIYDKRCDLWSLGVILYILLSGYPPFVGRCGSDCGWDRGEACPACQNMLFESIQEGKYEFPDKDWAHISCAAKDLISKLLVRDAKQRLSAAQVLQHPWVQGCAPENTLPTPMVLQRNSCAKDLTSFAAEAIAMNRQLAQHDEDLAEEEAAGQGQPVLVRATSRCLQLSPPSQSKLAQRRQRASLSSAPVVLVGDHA", "assay": "ProQinase radiometric kinase panel", "details": "mean of 2 exp."}, "CAMK2A": {"biological_target": "CAMK2A (Homo sapiens, UniProt Q9UQM7)", "assay": "ProQinase radiometric kinase panel", "details": "mean of 2 exp."}, "PKC-beta1": {"biological_target": "PKC-beta1 (Homo sapiens, UniProt P05771)", "assay": "ProQinase radiometric kinase panel", "details": "mean of 2 exp."}, "HIPK2": {"biological_target": "HIPK2 (Homo sapiens, UniProt Q9H2X6)", "sequence (Q9H2X6 180-533)": "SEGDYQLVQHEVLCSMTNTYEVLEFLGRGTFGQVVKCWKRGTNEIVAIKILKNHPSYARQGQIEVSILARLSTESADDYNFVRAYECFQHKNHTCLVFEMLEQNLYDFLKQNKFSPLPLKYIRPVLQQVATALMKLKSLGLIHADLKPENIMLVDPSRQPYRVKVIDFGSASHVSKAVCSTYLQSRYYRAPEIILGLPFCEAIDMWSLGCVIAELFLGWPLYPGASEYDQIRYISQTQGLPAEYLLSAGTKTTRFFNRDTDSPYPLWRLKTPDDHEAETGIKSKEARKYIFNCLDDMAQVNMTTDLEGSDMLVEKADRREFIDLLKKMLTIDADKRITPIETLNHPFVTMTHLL", "assay": "Kinase-GLO luminescent kinase assay", "assay_type": "biochemical", "set-up": "made in house; host or cells: E. coli", "details": "10 μM compound; means of at least 3 measurements", "procedure,_shortened": "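E. coli-expressed GST fusions (DYRK1A-ΔC, DYRK1B and HIPK2 catalytic domains, DYRK2) assayed in 25 mM Hepes pH 7.4, 5 mM MgCl2, 5 μM ATP with DYRKtide (20 μM for DYRKs, 100 μM for HIPK2). Kinase dosed to consume ~90% ATP; 30 min at room temperature, remaining ATP read by Kinase-GLO luminescence.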"}, "EPHA8": {"biological_target": "EPHA8 (Homo sapiens, UniProt P29322)", "assay": "ProQinase radiometric kinase panel", "details": "mean of 2 exp."}, "VEGF-R3": {"biological_target": "VEGF-R3 (Homo sapiens, UniProt P35916)", "assay": "ProQinase radiometric kinase panel", "details": "mean of 2 exp."}, "MEKK2": {"biological_target": "MEKK2 (Homo sapiens, UniProt Q9Y2U5)", "assay": "ProQinase radiometric kinase panel", "details": "mean of 2 exp."}, "FGR": {"biological_target": "FGR (Homo sapiens, UniProt P09769)", "assay": "ProQinase radiometric kinase panel", "details": "mean of 2 exp."}, "PAK6": {"biological_target": "PAK6 (Homo sapiens, UniProt Q9NQU5)", "assay": "ProQinase radiometric kinase panel", "details": "mean of 2 exp."}, "ROS": {"biological_target": "ROS (Homo sapiens, UniProt P08922)", "assay": "ProQinase radiometric kinase panel", "details": "mean of 2 exp."}, "RPS6KA2": {"biological_target": "RPS6KA2 (Homo sapiens, UniProt Q15349)", "sequence (Q15349 whole entry)": "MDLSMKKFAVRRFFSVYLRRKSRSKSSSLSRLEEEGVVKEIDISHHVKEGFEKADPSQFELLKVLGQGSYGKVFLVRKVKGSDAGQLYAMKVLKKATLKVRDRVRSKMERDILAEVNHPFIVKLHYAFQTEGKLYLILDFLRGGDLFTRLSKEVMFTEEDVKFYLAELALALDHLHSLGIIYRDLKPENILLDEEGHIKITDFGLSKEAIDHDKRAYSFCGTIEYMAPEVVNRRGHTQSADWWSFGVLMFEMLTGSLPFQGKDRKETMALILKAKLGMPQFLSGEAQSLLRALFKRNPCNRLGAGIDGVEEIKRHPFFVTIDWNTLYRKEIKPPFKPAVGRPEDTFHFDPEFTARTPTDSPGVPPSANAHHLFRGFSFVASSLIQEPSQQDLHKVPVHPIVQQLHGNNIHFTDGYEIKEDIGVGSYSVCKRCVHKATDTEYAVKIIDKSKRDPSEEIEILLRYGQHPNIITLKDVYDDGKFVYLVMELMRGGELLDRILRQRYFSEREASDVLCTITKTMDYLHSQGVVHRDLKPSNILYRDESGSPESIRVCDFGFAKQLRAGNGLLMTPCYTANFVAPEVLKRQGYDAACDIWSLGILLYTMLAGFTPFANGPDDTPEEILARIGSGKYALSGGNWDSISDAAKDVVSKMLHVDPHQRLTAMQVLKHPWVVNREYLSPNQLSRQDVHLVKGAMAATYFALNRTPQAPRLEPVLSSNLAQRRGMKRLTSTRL", "assay": "ProQinase radiometric kinase panel", "details": "mean of 2 exp."}, "DDR2": {"biological_target": "DDR2 (Homo sapiens, UniProt Q16832)", "assay": "ProQinase radiometric kinase panel", "details": "mean of 2 exp."}, "EPHA2": {"biological_target": "EPHA2 (Homo sapiens, UniProt P29317)", "assay": "ProQinase radiometric kinase panel", "details": "mean of 2 exp."}, "MYLK": {"biological_target": "MYLK (Homo sapiens, UniProt Q15746)", "assay": "ProQinase radiometric kinase panel", "details": "mean of 2 exp."}, "PAK3": {"biological_target": "PAK3 (Homo sapiens, UniProt O75914)", "sequence (O75914 whole entry)": "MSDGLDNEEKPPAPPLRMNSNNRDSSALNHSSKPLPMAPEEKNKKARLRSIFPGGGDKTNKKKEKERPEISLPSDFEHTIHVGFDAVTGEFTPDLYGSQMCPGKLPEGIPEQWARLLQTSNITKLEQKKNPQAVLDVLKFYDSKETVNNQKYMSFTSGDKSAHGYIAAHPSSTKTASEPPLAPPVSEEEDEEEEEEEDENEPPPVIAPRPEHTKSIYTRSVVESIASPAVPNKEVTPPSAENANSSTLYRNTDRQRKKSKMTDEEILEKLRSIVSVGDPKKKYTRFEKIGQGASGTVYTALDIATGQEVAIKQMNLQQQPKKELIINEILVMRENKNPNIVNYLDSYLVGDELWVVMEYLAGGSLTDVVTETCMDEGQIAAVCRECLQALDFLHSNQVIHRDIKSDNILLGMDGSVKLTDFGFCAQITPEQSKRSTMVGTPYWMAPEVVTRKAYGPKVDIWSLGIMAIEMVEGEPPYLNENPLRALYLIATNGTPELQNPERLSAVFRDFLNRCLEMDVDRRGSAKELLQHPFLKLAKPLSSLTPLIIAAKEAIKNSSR", "assay": "ProQinase radiometric kinase panel", "details": "mean of 2 exp."}, "MEKK3": {"biological_target": "MEKK3 (Homo sapiens, UniProt Q99759)", "sequence (Q99759 whole entry)": "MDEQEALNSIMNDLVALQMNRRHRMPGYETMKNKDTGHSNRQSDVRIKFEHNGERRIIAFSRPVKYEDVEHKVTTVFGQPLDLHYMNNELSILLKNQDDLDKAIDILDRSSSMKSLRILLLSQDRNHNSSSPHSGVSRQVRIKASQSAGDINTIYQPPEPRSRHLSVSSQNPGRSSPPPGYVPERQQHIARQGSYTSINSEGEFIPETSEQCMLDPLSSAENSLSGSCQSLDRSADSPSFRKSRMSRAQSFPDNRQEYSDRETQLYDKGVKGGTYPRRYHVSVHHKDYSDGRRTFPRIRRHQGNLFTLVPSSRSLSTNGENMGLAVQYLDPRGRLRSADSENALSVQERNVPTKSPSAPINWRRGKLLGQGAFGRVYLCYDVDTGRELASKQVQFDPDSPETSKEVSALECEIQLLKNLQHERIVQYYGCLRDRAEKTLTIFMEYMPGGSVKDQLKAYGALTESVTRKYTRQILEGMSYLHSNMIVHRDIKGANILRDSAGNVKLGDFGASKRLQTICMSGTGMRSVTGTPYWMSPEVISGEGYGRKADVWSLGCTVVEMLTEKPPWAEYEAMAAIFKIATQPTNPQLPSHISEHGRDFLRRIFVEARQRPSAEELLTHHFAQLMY", "assay": "ProQinase radiometric kinase panel", "details": "mean of 2 exp."}, "BRSK1": {"biological_target": "BRSK1 (Homo sapiens, UniProt Q8TDC3)", "assay": "ProQinase radiometric kinase panel", "details": "mean of 2 exp."}, "HCK": {"biological_target": "HCK (Homo sapiens, UniProt P08631)", "assay": "ProQinase radiometric kinase panel", "details": "mean of 2 exp."}, "MERTK": {"biological_target": "MERTK (Homo sapiens, UniProt Q12866)", "assay": "ProQinase radiometric kinase panel", "details": "mean of 2 exp."}, "CDK1/CycA2": {"biological_target": "CDK1/CycA2 (Homo sapiens, UniProt P06493)", "assay": "ProQinase radiometric kinase panel", "details": "mean of 2 exp."}, "RPS6KA5": {"biological_target": "RPS6KA5 (Homo sapiens, UniProt O75582)", "assay": "ProQinase radiometric kinase panel", "details": "mean of 2 exp."}, "CSF1-R": {"biological_target": "CSF1-R (Homo sapiens, UniProt P07333)", "assay": "ProQinase radiometric kinase panel", "details": "mean of 2 exp."}, "MARK4": {"biological_target": "MARK4 (Homo sapiens, UniProt Q96L34)", "assay": "ProQinase radiometric kinase panel", "details": "mean of 2 exp."}, "CDK7/CycH/MAT1": {"biological_target": "CDK7/CycH/MAT1 (Homo sapiens, UniProt P50613)", "assay": "ProQinase radiometric kinase panel", "details": "mean of 2 exp."}, "EPHB4": {"biological_target": "EPHB4 (Homo sapiens, UniProt P54760)", "assay": "ProQinase radiometric kinase panel", "details": "mean of 2 exp."}, "CK2-alpha2": {"biological_target": "CK2-alpha2 (Homo sapiens, UniProt P19784)", "sequence (P19784 whole entry)": "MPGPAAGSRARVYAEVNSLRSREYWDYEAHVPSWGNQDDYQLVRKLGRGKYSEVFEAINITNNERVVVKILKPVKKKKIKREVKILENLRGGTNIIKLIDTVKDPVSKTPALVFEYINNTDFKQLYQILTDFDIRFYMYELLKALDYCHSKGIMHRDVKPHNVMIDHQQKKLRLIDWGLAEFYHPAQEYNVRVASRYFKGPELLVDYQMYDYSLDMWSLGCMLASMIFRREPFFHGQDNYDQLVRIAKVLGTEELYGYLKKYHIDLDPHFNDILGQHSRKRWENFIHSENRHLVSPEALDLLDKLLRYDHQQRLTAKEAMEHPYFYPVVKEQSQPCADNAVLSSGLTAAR", "assay": "ProQinase radiometric kinase panel", "details": "mean of 2 exp."}, "HRI": {"biological_target": "HRI (Homo sapiens, UniProt Q9BQI3)", "assay": "ProQinase radiometric kinase panel", "details": "mean of 2 exp."}, "Aurora-A": {"biological_target": "Aurora-A (Homo sapiens, UniProt O14965)", "sequence (O14965 whole entry)": "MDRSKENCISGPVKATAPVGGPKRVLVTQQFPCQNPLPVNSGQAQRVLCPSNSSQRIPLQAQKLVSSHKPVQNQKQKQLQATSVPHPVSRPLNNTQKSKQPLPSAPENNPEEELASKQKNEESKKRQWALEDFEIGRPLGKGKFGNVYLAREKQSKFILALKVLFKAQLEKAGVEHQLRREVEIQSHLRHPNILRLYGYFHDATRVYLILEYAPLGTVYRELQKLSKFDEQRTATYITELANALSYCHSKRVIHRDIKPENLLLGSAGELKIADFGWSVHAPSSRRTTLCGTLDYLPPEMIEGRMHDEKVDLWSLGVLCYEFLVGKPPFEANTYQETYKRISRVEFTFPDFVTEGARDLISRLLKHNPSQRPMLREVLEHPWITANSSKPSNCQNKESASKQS", "assay": "ProQinase radiometric kinase panel", "details": "mean of 2 exp."}, "CDK4/CycD1": {"biological_target": "CDK4/CycD1 (Homo sapiens, UniProt P11802)", "sequence (P11802 whole entry)": "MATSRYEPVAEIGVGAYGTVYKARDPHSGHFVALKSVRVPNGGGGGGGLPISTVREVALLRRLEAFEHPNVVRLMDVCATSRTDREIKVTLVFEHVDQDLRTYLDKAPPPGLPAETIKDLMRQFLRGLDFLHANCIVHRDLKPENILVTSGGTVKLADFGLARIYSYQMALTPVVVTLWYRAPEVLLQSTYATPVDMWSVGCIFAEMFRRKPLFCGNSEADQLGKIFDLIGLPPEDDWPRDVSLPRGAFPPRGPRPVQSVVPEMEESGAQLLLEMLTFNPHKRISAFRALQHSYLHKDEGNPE", "sequence (P24385 whole entry partner)": "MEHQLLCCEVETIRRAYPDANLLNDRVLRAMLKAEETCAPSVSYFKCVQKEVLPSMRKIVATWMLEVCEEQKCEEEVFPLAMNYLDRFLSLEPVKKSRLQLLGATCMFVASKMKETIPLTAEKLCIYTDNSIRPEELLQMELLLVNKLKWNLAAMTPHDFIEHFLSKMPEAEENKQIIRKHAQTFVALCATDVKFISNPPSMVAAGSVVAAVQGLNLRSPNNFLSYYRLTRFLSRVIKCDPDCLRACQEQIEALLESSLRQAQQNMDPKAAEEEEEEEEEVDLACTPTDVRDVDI", "assay": "ProQinase radiometric kinase panel", "details": "mean of 2 exp."}}}
{"smiles": "COc1ccc2c3ccnc(Cl)c3n(CC#N)c2c1", "note": "[AnnH75]", "values": [{"measurement": "residual activity at 1 µM, Mean", "setting": "MUSK", "value": "101 % of control"}, {"measurement": "viability at 3 days, 1 µM", "setting": "Cell viability XTT assay; 1 μM", "value": 89, "unit": "%"}, {"measurement": "viability at 3 days, 3 µM", "setting": "Cell viability XTT assay; 3 μM", "value": 73, "unit": "%"}, {"measurement": "residual activity at 1 µM, Mean", "setting": "MKNK2", "value": "92 % of control"}, {"measurement": "residual activity at 1 µM, Mean", "setting": "CAMK2A", "value": "79 % of control"}, {"measurement": "residual activity at 1 µM, Mean", "setting": "PKC-beta1", "value": "93 % of control"}, {"measurement": "Residual activity (% of control) HIPK2", "setting": "HIPK2", "value": "85 % of control"}, {"measurement": "residual activity at 1 µM, Mean", "setting": "EPHA8", "value": "89 % of control"}, {"measurement": "residual activity at 1 µM, Mean", "setting": "VEGF-R3", "value": "93 % of control"}, {"measurement": "residual activity at 1 µM, Mean", "setting": "MEKK2", "value": "105 % of control"}, {"measurement": "residual activity at 1 µM, Mean", "setting": "FGR", "value": "101 % of control"}, {"measurement": "residual activity at 1 µM, Mean", "setting": "PAK6", "value": "93 % of control"}, {"measurement": "residual activity at 1 µM, Mean", "setting": "ROS", "value": "94 % of control"}, {"measurement": "residual activity at 1 µM, Mean", "setting": "RPS6KA2", "value": "97 % of control"}, {"measurement": "residual activity at 1 µM, Mean", "setting": "DDR2", "value": "97 % of control"}, {"measurement": "residual activity at 1 µM, Mean", "setting": "EPHA2", "value": "93 % of control"}, {"measurement": "residual activity at 1 µM, Mean", "setting": "MYLK", "value": "92 % of control"}, {"measurement": "residual activity at 1 µM, Mean", "setting": "PAK3", "value": "95 % of control"}, {"measurement": "residual activity at 1 µM, Mean", "setting": "MEKK3", "value": "97 % of control"}, {"measurement": "residual activity at 1 µM, Mean", "setting": "BRSK1", "value": "107 % of control"}, {"measurement": "residual activity at 1 µM, Mean", "setting": "HCK", "value": "101 % of control"}, {"measurement": "residual activity at 1 µM, Mean", "setting": "MERTK", "value": "91 % of control"}, {"measurement": "residual activity at 1 µM, Mean", "setting": "CDK1/CycA2", "value": "79 % of control"}, {"measurement": "residual activity at 1 µM, Mean", "setting": "RPS6KA5", "value": "96 % of control"}, {"measurement": "residual activity at 1 µM, Mean", "setting": "CSF1-R", "value": "106 % of control"}, {"measurement": "residual activity at 1 µM, Mean", "setting": "MARK4", "value": "104 % of control"}, {"measurement": "residual activity at 1 µM, Mean", "setting": "CDK7/CycH/MAT1", "value": "100 % of control"}, {"measurement": "residual activity at 1 µM, Mean", "setting": "EPHB4", "value": "95 % of control"}, {"measurement": "residual activity at 1 µM, Mean", "setting": "CK2-alpha2", "value": "101 % of control"}, {"measurement": "residual activity at 1 µM, Mean", "setting": "HRI", "value": "101 % of control"}, {"measurement": "residual activity at 1 µM, Mean", "setting": "Aurora-A", "value": "89 % of control"}, {"measurement": "residual activity at 1 µM, Mean", "setting": "CDK4/CycD1", "value": "100 % of control"}]}
